Test results published in article PMC9120017, “Inhibition mechanism of the chloride channel TMEM16A by the pore blocker 1PBC” (Nature Communications, 2022).
Read-outs that look alike come from different tables or passages of the source.

Target: T1, wild-type mouse TMEM16A (Mus musculus, UniProt Q8BHY3)
T1 construct: expressed in transfected cells; host or cells: HEK293T
T1 sequence (Q8BHY3 1-960): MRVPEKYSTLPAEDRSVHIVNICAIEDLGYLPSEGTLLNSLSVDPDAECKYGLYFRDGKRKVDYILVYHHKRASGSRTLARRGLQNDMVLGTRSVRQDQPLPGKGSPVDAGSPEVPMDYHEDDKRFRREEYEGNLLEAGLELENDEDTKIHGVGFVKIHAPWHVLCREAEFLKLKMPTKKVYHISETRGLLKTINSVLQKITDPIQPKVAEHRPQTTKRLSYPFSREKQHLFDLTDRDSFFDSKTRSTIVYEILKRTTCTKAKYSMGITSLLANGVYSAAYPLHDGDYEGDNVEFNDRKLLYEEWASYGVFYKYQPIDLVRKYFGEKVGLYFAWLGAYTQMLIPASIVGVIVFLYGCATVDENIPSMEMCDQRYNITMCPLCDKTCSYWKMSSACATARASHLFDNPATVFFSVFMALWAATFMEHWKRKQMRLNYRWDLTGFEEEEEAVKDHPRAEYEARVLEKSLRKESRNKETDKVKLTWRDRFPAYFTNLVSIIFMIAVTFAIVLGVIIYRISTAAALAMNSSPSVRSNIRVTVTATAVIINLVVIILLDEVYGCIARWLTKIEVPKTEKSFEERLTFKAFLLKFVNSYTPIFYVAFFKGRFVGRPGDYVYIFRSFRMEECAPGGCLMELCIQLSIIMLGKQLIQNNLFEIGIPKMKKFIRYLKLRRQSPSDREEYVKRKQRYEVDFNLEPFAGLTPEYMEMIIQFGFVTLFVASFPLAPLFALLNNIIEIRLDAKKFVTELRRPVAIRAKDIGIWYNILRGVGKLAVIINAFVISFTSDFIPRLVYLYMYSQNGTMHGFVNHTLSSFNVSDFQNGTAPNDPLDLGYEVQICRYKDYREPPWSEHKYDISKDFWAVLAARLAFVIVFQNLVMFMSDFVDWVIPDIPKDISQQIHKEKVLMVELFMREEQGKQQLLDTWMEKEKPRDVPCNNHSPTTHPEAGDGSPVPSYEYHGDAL
Test: Inside-out patch recording of 1PBC block, wild-type TMEM16A
Assay type: cell-based
Conditions: for remaining activity at 100 µM: read-out: I/Imax
Description: HEK293T cells (ATCC CRL-1573) were maintained in Dulbecco’s modified Eagle’s medium (DMEM; Sigma-Aldrich) supplemented with 10 U ml^−1 penicillin, 0.1 mg ml^−1 streptomycin (Sigma-Aldrich), 2 mM L-glutamine (Sigma-Aldrich), and 10% FBS (Sigma-Aldrich) in a humidified atmosphere containing 5% CO2 at 37 °C. HEK293S GnTI^− cells (ATCC CRL-3022) were maintained in HyClone HyCell TransFx-H medium (GE Healthcare) supplemented with 10 U ml^−1 penicillin, 0.1 mg ml^−1 streptomycin, 4 mM L-glutamine, 0.15% poloxamer 188 (Sigma-Aldrich), and 1% FBS in an atmosphere containing 5% CO2 at 185 rpm at 37 °C. The ac splice variant of mouse TMEM16A (UniProt ID: Q8BHY3), mouse TMEM16B (UniProt ID: Q8CFW1), or mouse TMEM16F (UniProt ID: Q6P9J9) bearing a 3C cleavage site, a Venus YFP, a Myc tag, and a Streptavidin-binding peptide (SBP) downstream of the open reading frame in a modified pcDNA3.1 vector (Invitrogen) were used as described previously[21],[31]. Mutations were introduced using a modified QuikChange method[58] and were verified by sequencing.
HEK293T cells were transfected with 3–4 μg DNA per 6 cm Petri dish using the calcium phosphate co-precipitation method and were used within 24–96 h after transfection. Recordings were performed on inside-out patches excised from HEK293T cells expressing the construct of interest. Patch pipettes were pulled from borosilicate glass capillaries (O.D. 1.5 mm, I.D. 0.86 mm, Sutter Instrument) and were fire-polished with a microforge (Narishige) before use. Pipette resistance was typically 3–8 MΩ when filled with the recording solutions detailed below. Seal resistance was typically 4 GΩ or higher. Voltage-clamp recordings were made using Axopatch 200B, Digidata 1550, and Clampex 10.7 (Molecular Devices). Analog signals were filtered with the in-built 4-pole Bessel filter at 10 kHz and were digitized at 20 kHz. Solution exchange was achieved using a gravity-fed system through a theta glass pipette mounted on an ultra-fast piezo-driven stepper (Siskiyou). […] All recordings were performed at 20 °C.
A symmetrical ionic condition was used throughout. Stock solution with Ca^2+-EGTA contained 150 mM NaCl, 5.99 mM Ca(OH)2, 5 mM EGTA, and 10 mM HEPES at pH 7.40. Stock solution with EGTA contained 150 mM NaCl, 5 mM EGTA, and 10 mM HEPES at pH 7.40. Free Ca^2+ concentrations were adjusted by mixing the stock solutions at the required ratios calculated using the WEBMAXC program (http://web.stanford.edu/~cpatton/webmaxcS.htm). Patch pipettes were filled with the stock solution with Ca^2+-EGTA, which has a free Ca^2+ concentration of 1 mM. 1PBC (ChemBridge) stock was reconstituted in anhydrous DMSO (Sigma-Aldrich) at 100 mM and stored at −20 °C. Working solutions with 1PBC were prepared by serial dilution. Unless otherwise stated, experiments were performed at a saturating Ca^2+ concentration as shown in Supplementary Table 1 and the primary data were corrected for current rundown as described previously[21],[25].
Concentration-response relations, obtained from the ratio of the I-V plots before and after the application of the blocker, were fitted to the Hill equation,1 I/Imax=1/1+IC50/[blocker]^h where I/Imax is the normalized current responses, IC50 defines the concentration at which inhibition is at its half-maximum, and h is the Hill coefficient.

[1] = 100 µM 1PBC, -100 mV, 2 µM Ca2+
[2] = 100 µM 1PBC, -120 mV, 2 µM Ca2+
[3] = 100 µM 1PBC, -140 mV, 2 µM Ca2+

Q: How did the “I/Imax scaled to open probability” value (100 µM 1PBC, 2 µM Ca2+, 80 mV) turn out when `N#Cc1c(C(F)(F)F)cc(O)n2c1nc1ccccc12` [1PBC] was run?
A: 0.02162

Q: And the “Steady-state current (normalized)” value (100 µM 1PBC, 20 mV, 2 µM Ca2+)?
A: 0.006925

Q: What about the remaining activity at 100 µM (100 µM 1PBC, 20 mV, 2 µM Ca2+) of the same compound?
A: 3.56%

Q: What about the “Steady-state current (normalized)” value (100 µM 1PBC, 40 mV, 2 µM Ca2+) of the same compound?
A: 0.0112

Q: And the remaining activity at 100 µM (100 µM 1PBC, 40 mV, 2 µM Ca2+)?
A: 2.97%

Q: What about the “Steady-state current (normalized)” value (100 µM 1PBC, 60 mV, 2 µM Ca2+) of the same compound?
A: 0.0148

Q: And the remaining activity at 100 µM (100 µM 1PBC, 60 mV, 2 µM Ca2+)?
A: 2.68%

Q: And the “Steady-state current (normalized)” value (100 µM 1PBC, 80 mV, 2 µM Ca2+)?
A: 0.01763

Q: What about the remaining activity at 100 µM (100 µM 1PBC, 80 mV, 2 µM Ca2+) of the same compound?
A: 2.49%

Q: What about the “Steady-state current (normalized)” value (100 µM 1PBC, 100 mV, 2 µM Ca2+) of the same compound?
A: 0.02038

Q: What about the remaining activity at 100 µM (100 µM 1PBC, 100 mV, 2 µM Ca2+) of the same compound?
A: 2.4%

Q: What about the “Steady-state current (normalized)” value (100 µM 1PBC, 120 mV, 2 µM Ca2+) of the same compound?
A: 0.024

Q: And the remaining activity at 100 µM (100 µM 1PBC, 120 mV, 2 µM Ca2+)?
A: 2.47%

Q: And the “Steady-state current (normalized)” value (100 µM 1PBC, 140 mV, 2 µM Ca2+)?
A: 0.02832

Q: What about the remaining activity at 100 µM (100 µM 1PBC, 140 mV, 2 µM Ca2+) of the same compound?
A: 2.6%

Q: What about the “Steady-state current (normalized)” value (100 µM 1PBC, -20 mV, 2 µM Ca2+) of the same compound?
A: -0.01026

Q: What about the remaining activity at 100 µM (100 µM 1PBC, -20 mV, 2 µM Ca2+) of the same compound?
A: 5.33%

Q: And the “Steady-state current (normalized)” value (100 µM 1PBC, -40 mV, 2 µM Ca2+)?
A: -0.02602

Q: What about the remaining activity at 100 µM (100 µM 1PBC, -40 mV, 2 µM Ca2+) of the same compound?
A: 6.7%

Q: And the “Steady-state current (normalized)” value (100 µM 1PBC, -60 mV, 2 µM Ca2+)?
A: -0.04778

Q: What about the remaining activity at 100 µM (100 µM 1PBC, -60 mV, 2 µM Ca2+) of the same compound?
A: 8.25%

Q: And the “Steady-state current (normalized)” value (100 µM 1PBC, -80 mV, 2 µM Ca2+)?
A: -0.07707

Q: What about the remaining activity at 100 µM (100 µM 1PBC, -80 mV, 2 µM Ca2+) of the same compound?
A: 10%

Q: And the “Steady-state current (normalized)” value [1]?
A: -0.1118

Q: And the remaining activity at 100 µM [1]?
A: 11.8%

Q: And the “Steady-state current (normalized)” value [2]?
A: -0.1551

Q: And the remaining activity at 100 µM [2]?
A: 13.9%

Q: What about the “Steady-state current (normalized)” value [3] of the same compound?
A: -0.2042

Q: What about the remaining activity at 100 µM [3] of the same compound?
A: 15.9%

Q: And the IC50 (20 mV, 2 µM Ca2+)?
A: 3.42 µM

Q: What about the IC50 (40 mV, 2 µM Ca2+) of the same compound?
A: 2.77 µM

Q: And the IC50 (60 mV, 2 µM Ca2+)?
A: 2.32 µM

Q: And the IC50 (80 mV, 2 µM Ca2+)?
A: 2.06 µM

Q: And the IC50 (100 mV, 2 µM Ca2+)?
A: 2 µM

Q: What about the IC50 (120 mV, 2 µM Ca2+) of the same compound?
A: 2.1 µM

Q: And the IC50 (140 mV, 2 µM Ca2+)?
A: 2.41 µM

Q: And the IC50 (-20 mV, 2 µM Ca2+)?
A: 5.63 µM

Q: And the IC50 (-40 mV, 2 µM Ca2+)?
A: 7.34 µM

Q: What about the IC50 (-60 mV, 2 µM Ca2+) of the same compound?
A: 9.2 µM

Q: What about the IC50 (-80 mV, 2 µM Ca2+) of the same compound?
A: 11.6 µM

Q: And the IC50 (-100 mV, 2 µM Ca2+)?
A: 14.1 µM

Q: What about the IC50 (-120 mV, 2 µM Ca2+) of the same compound?
A: 17.2 µM

Q: What about the IC50 (-140 mV, 2 µM Ca2+) of the same compound?
A: 19.9 µM

Q: And the “Selectivity for anion channels of the TMEM16 family over the scramblase TMEM16F” value (TMEM16A and TMEM16B blocked, TMEM16F current not)?
A: selective for anion channels of the TMEM16 family over the scramblase TMEM16F

Q: What about the “Electrical distance of 1PBC block” value (functional experiments) of the same compound?
A: 0.2-0.25

Q: And the Membrane permeability (neutral pH, implied from block from the extracellular side after intracellular application)?
A: freely membrane-permeable

Q: What about the IC50 (zero mV, saturating Ca2+ concentration (2 µM), applied from the intracellular side) of the same compound?
A: ~4 µM
